What is called bioavailability is the share of a dose that reaches the circulation, judged against a reference dose that is usually intravenous.

For series [1] the following is noted: intravenous infusion of labelled synthetic OT; cited from earlier work. The text has this: (§1) With respect to changes in rCBF induced by the intravenous administration of OT, there may be three possible mediating mechanisms. First, it is possible that peripheral effects of OT on vegetative territories, such as the heart, may be an indirect source of changes in areas of the interoceptive/allostasis network in the human brain, where the dorsal amygdala and the pregenual anterior cingulate cortex assume the role of visceromotor hubs[43].

A short description of series [2]: Plasma OT pharmacokinetics after intravenous, nasal spray or nebulizer administration (radioimmunoassay after extraction). Type of series: in vivo, humans. More on the design: Plasma OT Concentration, individual participants: unit not given here. As to conditions: for Plasma OT Concentration, individual participants: Condition IV (10 IU), source data of Fig. 6a; for Plasma OT Concentration, individual participants / Bioavailability, individual participants: unit not given; for Bioavailability, individual participants: source data of Fig. 6c, one row per participant; for AUC of plasmatic oxytocin post-dosing / Cmax: 40 IU OT; for AUC of plasmatic oxytocin post-dosing: trapezoidal rule, 120 min post-dosing; for Cmax: healthy men, plasma, radioimmunoassay, read-out: Cmax, maximum plasmatic concentration achieved after dosing. The text has this: For the intranasal administrations, participants self-administered a nominal dose of 40 IU OT (Syntocinon; 40IU/ml; Novartis, Basel, Switzerland), one of the highest clinically applicable doses. We have shown that 40IU delivered with a standard nasal spray induce robust rCBF changes in the human brain in a between-subjects, single-blind design study. For the intranasal administration, we used specially manufactured placebo that contained the same excipients as Syntocinon except for oxytocin.
The aerosol droplet size of three Syntocinon spray bottles was assessed by laser diffraction (Malvern Spraytec, Malvern Panalytical, Worcestershire, UK). The mass median diameter (MMD) of the aerosol plume was 37 ± 2.5 µm.
PARI SINUS nebulizer: Participants self-administered 40IU OT (Syntocinon) or placebo, by operating the SINUS nebulizer for 3 min in each nostril (6 min in total), according to instructions. The correct application of the device was confirmed by determining gravimetrically the administered volume. Participants were instructed to breathe using only their mouth and to keep a constant breath rate with their soft palate closed, to minimize delivery to the lungs. The PARI SINUS (PARI GmbH, Starnberg, Germany) is designed to deliver aerosolised drugs to the sinus cavities by ventilating the sinuses via pressure fluctuations. The SINUS nebulizer produces an aerosol with 3 µm MMD, which is superimposed with a 44 Hz pulsation frequency. […] The efficacy of this system was first shown in a scintigraphy study by ref. [76]. Since the entrance of the sinuses is located near the olfactory region, an improved delivery to the olfactory region was expected compared to nasal sprays. Other studies[32] have shown up to 9.0% (±1.9%) of the total administered dose to be delivered to the olfactory region, 15.7 (±2.4%) to the upper nose.
For the intravenous administration, we delivered 10IU OT (Syntocinon injection formulation, 10IU/ml, Alliance, UK) or saline via slow infusion over 10 min (1IU/min). A 50-ml syringe was loaded with either 32 ml of 0.9% sodium chloride (placebo) or 30 ml of 0.9% sodium chloride with […] of Syntocinon (10IU/ml). […] The ECG was monitored during the intravenous administration interval. We selected the intravenous dose and rate of administration to assure high plasmatic concentrations of OT throughout the observation period while restricting cardiovascular effects to tolerable and safe limits. A rate of 1IU per minute is typically used in caesarean sections and is considered to have minimised side effects[77],[78].
We collected plasma samples at baseline and at five timepoints post-dosing (as detailed in Fig. 1) to measure changes in the concentration of OT. Plasmatic OT was assayed by radioimmunoassay (RIAgnosis, Munich, Germany) after extraction, currently the gold-standard technique for OT quantifications in peripheral fluids. The detection limit of this assay is in the 0.5 pg/sample range. Cross-reactivity with vasopressin, ring moieties and terminal tripeptides of both OT and vasopressin and a wide variety of peptides comprising […] (alpha-melanocyte-stimulating hormone) up to 41 (corticotrophin-releasing factor) amino acids are <0.7% throughout. The intra- and inter-assay variabilities are <10%[80].
Pharmacokinetic analysis: From the plasmatic concentrations of OT at several timepoints after dosing we calculated the area under the curve (AUC) using the trapezoidal rule for each subject and session. AUC provides a single metric that reflects variations in plasma levels of OT concentration following OT/placebo administration for each session and each participant. […] Mean AUCs were compared between the three methods of administration with a repeated measures one-way analysis of variance, using the Greenhouse-Geisser correction against violations of sphericity. Post-hoc comparisons between methods were implemented using Tukey’s correction for multiple comparisons. […]

For series [3] the following is noted: intraperitoneal administration, cited from earlier work.
Text: as §1, with “hubs[43]. […] The delivery to the paranasal sinuses seems to be increased about 3-5x by using the aerosol pulsation deposition method implemented by the PARI sinus nebuliser(6, 7). The paranasal sinus mucosa is also innervated by the trigeminal nerve which is one of the pathways propo ...” for “hubs[43].”

The conditions of series [4]: cited from earlier work. The text has this: Human studies almost exclusively target the central OT system by administering synthetic OT using nasal sprays, despite a lack of understanding of the mechanisms underpinning its pharmacodynamic effects. […] The intranasal administration of OT has been favoured under the assumption that once in the nasal cavity, OT can reach the brain directly, bypassing the BBB[13]. […] The first mechanism po ...

Each structure is given as a SMILES string. Where “and” joins values, the source holds several entries; their conditions need not be identical. Equal values may be shown once. Read-outs that look alike come from different tables or passages of the source.

As for `CC[C@H](C)[C@@H]1NC(=O)[C@H](Cc2ccc(O)cc2)NC(=O)[C@@H](N)CSSC[C@@H](C(=O)N2CCC[C@H]2C(=O)N[C@@H](CC(C)C)C(=O)NCC(N)=O)NC(=O)[C@H](CC(N)=O)NC(=O)[C@H](CCC(N)=O)NC1=O` [OT, oxytocin], in series [1], the “Synthetic OT levels in the CSF” value is “increased synthetic OT levels in the CSF”. For the same compound, the “Plasma OT Concentration, individual participants” value in series [2] (Sample 2) was 65.12 and 59.67 and 47.11; in series [2] (Sample 3), 68.1; in series [2] (Sample 4) it was 30.93 and 53.9; in series [2] (Sample 6), 12.86 and 20.71; in series [2] (Sample 7), 7.3 and 7.23 and 4.61; in series [2] (Sample 8), 3.77. The “Time of peak plasma concentration” value in series [2] (Intravenous, 10 IU) is on record as “at the end of dosing”; in series [2] (Nasal spray, 40 IU), “at the end of dosing”. Besides, the “Bioavailability, individual participants” value in series [2] (Nebuliser 40 IU) is 31.90 and 10.30 and 3.30 and 7.94 and 12.67 and 62.94 and 5.39 and 6.53 and 8.236 and 4.17 and 6.07 and 5.20 and 6.82 and 10.22 and 6.95 and 32.80; in series [2] (Spray 40 IU), 6.85 and 11.96 and 5.38 and 16.81 and 5.32 and 6.16 and 8.93 and 4.67 and 8.4323 and 12.50 and 14.77 and 6.29 and 7.56 and 11.34 and 5.36 and 37.05. Besides, the “AUC of plasmatic oxytocin post-dosing” value in series [2] (PARI SINUS nebulizer, mean (1 SEM)) was 15.30 (2.14) pg.ml-1.h-1; in series [2] (Standard nasal spray, mean (1 SEM)), 15.70 (1.97) pg.ml-1.h-1. Besides, the Cmax in series [2] (human, in vivo, inhaled or intranasal, 40 IU, PARI SINUS nebulizer, mean (1 SEM)) was 0.0163 ng/mL; in series [2] (human, in vivo, inhaled or intranasal, 40 IU, Standard nasal spray, mean (1 SEM)), 0.0158 ng/mL. Besides, in series [2] (human, in vivo, inhaled or intranasal, Nebulizer, 40 IU, post-dosing, read-out: Time of peak plasma concentration (converted)), the Tmax was about 15 min. The bioavailability in series [2] (human, in vivo, inhaled or intranasal, Standard nasal spray 40 IU, dose-corrected AUC intranasal / dose-corrected AUC intravenous, mean (1 SEM), read-out: Absolute bioavailability of oxytocin absorbed to the plasma) came to 10.6%. For the same compound, in series [3] (wild-type and OT knockout mice), the “OT concentration in brain extracellular fluid” value is “increased the concentration of OT in the extracellular fluid in the amygdala and dorsal hippocampus”. For the same compound, in series [3] (ref Smith et al. 2019), the “Time the concentration in amygdala extracellular fluid remains elevated” value is given as “about 1 h”. In addition, in series [3] (ref Smith et al. 2019), the “Time to reach the extracellular fluid in the amygdala” value was at most 30 min. For the same compound, the “Crossing of the blood-brain barrier” value in series [4] is reported as “unable to cross the blood-brain barrier (BBB) in significant amounts”.

(Values after publication PMC7054359, “Effects of route of administration on oxytocin-induced changes in regional cerebral blood flow in humans” (Nature Communications, 2020).)
